# Molecular target: GST-Bc1-2 (Homo sapiens, UniProt P10415)
# Assay: Time Resolved-Fluorescence Resonance Energy Transfer (TR-FRET) Bcl-2 binding assay with F-Bak peptide probe
# Conditions: GST-Bcl-2 1 nM, F-Bak probe 100 nM, Tb-anti-GST 1 nM; '<' = below limit of detection; read-out: TR-FRET Bcl-2 Binding Ki
# GST-Bc1-2, sequence (P10415 whole entry): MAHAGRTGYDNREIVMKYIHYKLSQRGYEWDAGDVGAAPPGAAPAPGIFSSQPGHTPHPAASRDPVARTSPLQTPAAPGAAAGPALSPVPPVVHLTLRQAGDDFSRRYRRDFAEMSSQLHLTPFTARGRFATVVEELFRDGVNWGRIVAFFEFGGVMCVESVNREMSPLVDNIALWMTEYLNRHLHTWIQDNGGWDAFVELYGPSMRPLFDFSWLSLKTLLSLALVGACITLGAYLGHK
row,SMILES,Ki [nM]
1,"CC(C)N1CCC2(CCC(c3ccc(Cl)cc3)=C(CN3CCN(c4ccc(C(=O)NS(=O)(=O)c5ccc(NCC6CCOCC6)c([N+](=O)[O-])c5)c(Oc5cnc6[nH]ccc6c5)c4)CC3)C2)CC1 [Example 266, 4-(4-{[9-(4-chlorophenyl)-3-isopropyl-3-azaspiro[5.5]undec-8-en-8-yl]methyl}piperazin-1-yl)-N-({3-nitro-4-[(tetrahydro-2H-pyran-4-ylmethyl)amino]phenyl}sulfonyl)-2-(1H-pyrrolo[2,3-b]pyridin-5-yloxy)benzamide]",< 0.01
2,"CC(C)N1CCC2(CCC(c3ccc(Cl)cc3)=C(CN3CCN(c4ccc(C(=O)NS(=O)(=O)c5cnc(OCC6CCOCC6)c(Cl)c5)c(Oc5cnc6[nH]ccc6c5)c4)CC3)C2)CC1 [Example 268, 4-(4-{[9-(4-chlorophenyl)-3-isopropyl-3-azaspiro[5.5]undec-8-en-8-yl]methyl}piperazin-1-yl)-N-{[5-chloro-6-(tetrahydro-2H-pyran-4-ylmethoxy)pyridin-3-yl]sulfonyl}-2-(1H-pyrrolo[2,3-b]pyridin-5-yloxy)benzamide]",< 0.01
3,"CN1CCC(F)(COc2ncc(S(=O)(=O)NC(=O)c3ccc(N4CCN(CC5=C(c6ccc(Cl)cc6)CC(C)(C)CC5)CC4)cc3Oc3cnc4[nH]ccc4c3)cc2Cl)CC1 [Example 269, N-({5-chloro-6-[(4-fluoro-1-methylpiperidin-4-yl)methoxy]pyridin-3-yl}sulfonyl)-4-(4-{[2-(4-chlorophenyl)-4,4-dimethylcyclohex-1-en-1-yl]methyl}piperazin-1-yl)-2-(1H-pyrrolo[2,3-b]pyridin-5-yloxy)benzamide]",0.016
4,"CN(C)CC(=O)N1CCC(F)(COc2ncc(S(=O)(=O)NC(=O)c3ccc(N4CCN(CC5=C(c6ccc(Cl)cc6)CC(C)(C)CC5)CC4)cc3Oc3cnc4[nH]ccc4c3)cc2Cl)CC1 [Example 270, N-[(5-chloro-6-{[1-(N,N-dimethylglycyl)-4-fluoropiperidin-4-yl]methoxy}pyridin-3-yl)sulfonyl]-4-(4-{[2-(4-chlorophenyl)-4,4-dimethylcyclohex-1-en-1-yl]methyl}piperazin-1-yl)-2-(1H-pyrrolo[2,3-b]pyridin-5-yloxy)benzamide]",< 0.01
5,"O=C(NS(=O)(=O)c1ccc(NCC2CCOCC2)c([N+](=O)[O-])c1)c1ccc(N2CCC(F)(Cc3ccccc3-c3ccc(Cl)cc3)CC2)cc1Oc1cnc2[nH]ccc2c1 [Example 271, 4-{4-[(4′-chlorobiphenyl-2-yl)methyl]-4-fluoropiperidin-1-yl}-N-({3-nitro-4-[(tetrahydro-2H-pyran-4-ylmethyl)amino]phenyl}sulfonyl)-2-(1H-pyrrolo[2,3-b]pyridin-5-yloxy)benzamide]",0.039
6,"O=C(NS(=O)(=O)c1cnc(OCC2(F)CCOCC2)c(Cl)c1)c1ccc(N2CCC(F)(Cc3ccccc3-c3ccc(Cl)cc3)CC2)cc1Oc1cnc2[nH]ccc2c1 [Example 272, 4-{4-[(4′-chlorobiphenyl-2-yl)methyl]-4-fluoropiperidin-1-yl}-N-({5-chloro-6-[(4-fluorotetrahydro-2H-pyran-4-yl)methoxy]pyridin-3-yl}sulfonyl)-2-(1H-pyrrolo[2,3-b]pyridin-5-yloxy)benzamide]",0.031
7,"CC(C)N1CCC2(CCC(c3ccc(Cl)cc3)=C(CN3CCN(c4ccc(C(=O)NS(=O)(=O)c5ccc(NCC6CCOCC6)c(C(F)(F)F)c5)c(Oc5cnc6[nH]ccc6c5)c4)CC3)C2)CC1 [Example 273, 4-(4-{[9-(4-chlorophenyl)-3-isopropyl-3-azaspiro[5.5]undec-8-en-8-yl]methyl}piperazin-1-yl)-2-(1H-pyrrolo[2,3-b]pyridin-5-yloxy)-N-({4-[(tetrahydro-2H-pyran-4-ylmethyl)amino]-3-(trifluoromethyl)phenyl}sulfonyl)benzamide]",0.035
8,"CC1(C)CCC(CN2CCN(c3ccc(C(=O)NS(=O)(=O)c4cnc(O[C@@H]5CCN(C(CF)CF)C5)c(Cl)c4)c(Oc4cnc5[nH]ccc5c4)c3)CC2)=C(c2ccc(Cl)cc2)C1 [Example 274, N-[(5-chloro-6-{[(3R)-1-(1,3-difluoropropan-2-yl)pyrrolidin-3-yl]oxy}pyridin-3-yl)sulfonyl]-4-(4-{[2-(4-chlorophenyl)-4,4-dimethylcyclohex-1-en-1-yl]methyl}piperazin-1-yl)-2-(1H-pyrrolo[2,3-b]pyridin-5-yloxy)benzamide]",0.04
9,"CC1(C)CCC(CN2CCN(c3ccc(C(=O)NS(=O)(=O)c4ccc(OCCOC5CCOC5)c([N+](=O)[O-])c4)c(Oc4cnc5[nH]ccc5c4)c3)CC2)=C(c2ccc(Cl)cc2)C1 (stereo not shown) [Example 275, 4-(4-{[2-(4-chlorophenyl)-4,4-dimethylcyclohex-1-en-1-yl]methyl}piperazin-1-yl)-N-({3-nitro-4-[2-(tetrahydrofuran-3-yloxy)ethoxy]phenyl}sulfonyl)-2-(1H-pyrrolo[2,3-b]pyridin-5-yloxy)benzamide]",< 0.01
10,"CC1(C)CCC(CN2CCN(c3ccc(C(=O)NS(=O)(=O)c4ccc(NC[C@H]5CC[C@H](C#N)CC5)c([N+](=O)[O-])c4)c(Oc4cnc5[nH]ccc5c4)c3)CC2)=C(c2ccc(Cl)cc2)C1 [Example 276, 4-(4-{[2-(4-chlorophenyl)-4,4-dimethylcyclohex-1-en-1-yl]methyl}piperazin-1-yl)-N-[(4-{[(trans-4-cyanocyclohexyl)methyl]amino}-3-nitrophenyl)sulfonyl]-2-(1H-pyrrolo[2,3-b]pyridin-5-yloxy)benzamide]",< 0.01
11,"CC1(C)CCC(CN2CCN(c3ccc(C(=O)NS(=O)(=O)c4cnc(OCC5(F)CCN(C6COC6)CC5)c(Cl)c4)c(Oc4cnc5[nH]ccc5c4)c3)CC2)=C(c2ccc(Cl)cc2)C1 [Example 277, N-[(5-chloro-6-{[4-fluoro-1-(oxetan-3-yl)piperidin-4-yl]methoxy}pyridin-3-yl)sulfonyl]-4-(4-{[2-(4-chlorophenyl)-4,4-dimethylcyclohex-1-en-1-yl]methyl}piperazin-1-yl)-2-(1H-pyrrolo[2,3-b]pyridin-5-yloxy)benzamide]",< 0.01
12,"CC1(C)CCC(CN2CCN(c3ccc(C(=O)NS(=O)(=O)c4cnc(OCCC5CCOCC5)c(C#N)c4)c(Oc4cnc5[nH]ccc5c4)c3)CC2)=C(c2ccc(Cl)cc2)C1 [Example 278, 4-(4-{[2-(4-chlorophenyl)-4,4-dimethylcyclohex-1-en-1-yl]methyl}piperazin-1-yl)-N-({5-cyano-6-[2-(tetrahydro-2H-pyran-4-yl)ethoxy]pyridin-3-yl}sulfonyl)-2-(1H-pyrrolo[2,3-b]pyridin-5-yloxy)benzamide]",0.252
13,"CC1(C)CCC(CN2CCN(c3ccc(C(=O)NS(=O)(=O)c4ccc(OCc5ccoc5)c([N+](=O)[O-])c4)c(Oc4cnc5[nH]ccc5c4)c3)CC2)=C(c2ccc(Cl)cc2)C1 [Example 279, 4-(4-{[2-(4-chlorophenyl)-4,4-dimethylcyclohex-1-en-1-yl]methyl}piperazin-1-yl)-N-{[4-(3-furylmethoxy)-3-nitrophenyl]sulfonyl}-2-(1H-pyrrolo[2,3-b]pyridin-5-yloxy)benzamide]",0.035
14,"CC1(C)CCC(CN2CCN(c3ccc(C(=O)NS(=O)(=O)c4cnc(OC[C@@H]5CCN(C(CF)CF)C5)c(Cl)c4)c(Oc4cnc5[nH]ccc5c4)c3)CC2)=C(c2ccc(Cl)cc2)C1 [Example 280, N-[(5-chloro-6-{[(3R)-1-(1,3-difluoropropan-2-yl)pyrrolidin-3-yl]methoxy}pyridin-3-yl)sulfonyl]-4-(4-{[2-(4-chlorophenyl)-4,4-dimethylcyclohex-1-en-1-yl]methyl}piperazin-1-yl)-2-(1H-pyrrolo[2,3-b]pyridin-5-yloxy)benzamide]",0.071
15,"CC1(C)CCC(CN2CCN(c3ccc(C(=O)NS(=O)(=O)c4cnc(OC[C@@H]5CCN(CC(F)F)C5)c(Cl)c4)c(Oc4cnc5[nH]ccc5c4)c3)CC2)=C(c2ccc(Cl)cc2)C1 [Example 281, N-[(5-chloro-6-{[(3R)-1-(2,2-difluoroethyl)pyrrolidin-3-yl]methoxy}pyridin-3-yl)sulfonyl]-4-(4-{[2-(4-chlorophenyl)-4,4-dimethylcyclohex-1-en-1-yl]methyl}piperazin-1-yl)-2-(1H-pyrrolo[2,3-b]pyridin-5-yloxy)benzamide]",0.145
16,"CC1(C)CCC(CN2CCN(c3ccc(C(=O)NS(=O)(=O)c4cnc(OCC5(F)CCN(C(CF)CF)CC5)c(Cl)c4)c(Oc4cnc5[nH]ccc5c4)c3)CC2)=C(c2ccc(Cl)cc2)C1 [Example 282, N-[(5-chloro-6-{[1-(1,3-difluoropropan-2-yl)-4-fluoropiperidin-4-yl]methoxy}pyridin-3-yl)sulfonyl]-4-(4-{[2-(4-chlorophenyl)-4,4-dimethylcyclohex-1-en-1-yl]methyl}piperazin-1-yl)-2-(1H-pyrrolo[2,3-b]pyridin-5-yloxy)benzamide]",< 0.01
17,"CN1CCC(F)(COc2ccc(S(=O)(=O)NC(=O)c3ccc(N4CCN(CC5=C(c6ccc(Cl)cc6)CC(C)(C)CC5)CC4)cc3Oc3cnc4[nH]ccc4c3)cc2Cl)CC1 [Example 283, N-({3-chloro-4-[(4-fluoro-1-methylpiperidin-4-yl)methoxy]phenyl}sulfonyl)-4-(4-{[2-(4-chlorophenyl)-4,4-dimethylcyclohex-1-en-1-yl]methyl}piperazin-1-yl)-2-(1H-pyrrolo[2,3-b]pyridin-5-yloxy)benzamide]",< 0.01
18,"CC1(C)CCC(CN2CCN(c3ccc(C(=O)NS(=O)(=O)c4ccc(OCC5CCOCC5)c(C#N)c4)c(Oc4cnc5[nH]ccc5c4)c3)CC2)=C(c2ccc(Cl)cc2)C1 [Example 284, 4-(4-{[2-(4-chlorophenyl)-4,4-dimethylcyclohex-1-en-1-yl]methyl}piperazin-1-yl)-N-{[3-cyano-4-(tetrahydro-2H-pyran-4-ylmethoxy)phenyl]sulfonyl}-2-(1H-pyrrolo[2,3-b]pyridin-5-yloxy)benzamide]",0.024
19,"CC1(C)CCC(CN2CCN(c3ccc(C(=O)NS(=O)(=O)c4cnc(OCC5(F)CCN(CC(F)F)CC5)c(Cl)c4)c(Oc4cnc5[nH]ccc5c4)c3)CC2)=C(c2ccc(Cl)cc2)C1 [Example 285, N-[(5-chloro-6-{[1-(2,2-difluoroethyl)-4-fluoropiperidin-4-yl]methoxy}pyridin-3-yl)sulfonyl]-4-(4-{[2-(4-chlorophenyl)-4,4-dimethylcyclohex-1-en-1-yl]methyl}piperazin-1-yl)-2-(1H-pyrrolo[2,3-b]pyridin-5-yloxy)benzamide]",< 0.01
